Reference: patent US3962427A, “Antibiotic nebramycin factor VII” (Eli Lilly and Company, priority 1974, dated 1976)

Assays:
[1] = system: Pseudomonas species; conditions: cited from earlier work
[2] = system: Streptococcus sp. (group D) 9901; experiment: Agar dilution MIC, Antibiotic Spectrum of Nebramycin VII; assay type: cell-based
[3] = system: Streptococcus sp. (group D) 9960; experiment: as above; assay type: cell-based
[4] = system: Enterobater aerogenes EB2; experiment: as above; assay type: cell-based
[5] = system: Enterobacter aerogenes EB4; experiment: as above; assay type: cell-based
[6] = system: Enterobacter cloacae EB5; experiment: as above; assay type: cell-based
[7] = system: Enterobacter cloacae EB8; experiment: as above; assay type: cell-based
[8] = system: Escherichia coli EC2; experiment: as above; assay type: cell-based
[9] = system: Escherichia coli EC8; experiment: as above; assay type: cell-based
[10] = system: Proteus mirabilis PR3; experiment: as above; assay type: cell-based
[11] = system: Proteus mirabilis PR11; experiment: as above; assay type: cell-based
[12] = system: Proteus morganii PR1; experiment: as above; assay type: cell-based
[13] = system: Proteus morganii PR15; experiment: as above; assay type: cell-based
[14] = system: Proteus rettgeri PR2; experiment: as above; assay type: cell-based
[15] = system: Proteus rettgeri PR7; experiment: as above; assay type: cell-based
[16] = system: Proteus vulgaris PR27; experiment: as above; assay type: cell-based
[17] = system: Proteus vulgaris PR28; experiment: as above; assay type: cell-based
[18] = system: Providencia sp. 439; experiment: as above; assay type: cell-based
[19] = system: Pseudomonas aeruginosa PI1; experiment: as above; assay type: cell-based
[20] = system: Pseudomonas aeruginosa PI12; experiment: as above; assay type: cell-based
[21] = system: Pseudomonas aeruginosa PI21; experiment: as above; assay type: cell-based
[22] = system: Pseudomonas aeruginosa PI23; experiment: as above; assay type: cell-based
[23] = system: Pseudomonas aeruginosa PI24; experiment: as above; assay type: cell-based
[24] = system: Pseudomonas aeruginosa PI27; experiment: as above; assay type: cell-based
[25] = system: Pseudomonas aeruginosa PI37; experiment: as above; assay type: cell-based
[26] = system: Pseudomonas aeruginosa PS9; experiment: as above; assay type: cell-based
[27] = system: Pseudomonas aeruginosa PS10; experiment: as above; assay type: cell-based
[28] = system: Pseudomonas aeruginosa PS14; experiment: as above; assay type: cell-based
[29] = system: Pseudomonas aeruginosa PS15; experiment: as above; assay type: cell-based
[30] = system: Pseudomonas aeruginosa PS34; experiment: as above; assay type: cell-based
[31] = system: Pseudomonas cepacia 3189; experiment: as above; assay type: cell-based
[32] = system: Pseudomonas cepacia 5629; experiment: as above; assay type: cell-based
[33] = system: Pseudomonas maltophilia 438; experiment: as above; assay type: cell-based
[34] = system: Pseudomonas pseudomallei 121; assay type: cell-based; conditions: agar dilution
[35] = system: Pseudomonas solanacearum X185; assay type: cell-based; conditions: agar dilution
[36] = system: Serratia marcescens SE3; experiment: Agar dilution MIC, Antibiotic Spectrum of Nebramycin VII; assay type: cell-based
[37] = system: gram negative organisms; experiment: Antibacterial activity of nebramycin VII in words; assay type: cell-based
[38] = Solubility; assay type: physicochemical
[39] = Toxicity in words
[40] = system: Staphylococcus aureus 3055; experiment: Agar dilution MIC, Antibiotic Spectrum of Nebramycin VII; conditions: Staphylococcus aureus 3055, Penicillin G sensitive strain
[41] = system: Staphylococcus aureus 3074; experiment: as above; conditions: Staphylococcus aureus 3074, Penicillin G resistant strain
[42] = system: Staphylococcus aureus 3130; experiment: as above; conditions: Staphylococcus aureus 3130, Methicillin resistant strain

Structure (SMILES): CN[C@@H]1[C@@H](O[C@H]2O[C@H](CO)[C@@H](N)[C@H](O)[C@H]2O)OC2C[C@@H](N)[C@@H](O[C@H]3[C@H](O)[C@@H](O)[C@H](N)C[C@@H]3N)OC2[C@@H]1O (some centres unmarked) [Nebramycin II]
- antibiotic activity against Pseudomonas species [1]: antibiotic activity

Structure (SMILES): CN[C@@H]1[C@@H](O[C@H]2O[C@H](CO)[C@@H](N)[C@H](O)[C@H]2O)O[C@H]2[C@H](O)[C@@H](N)[C@@H](O[C@H]3[C@H](O)[C@@H](O)[C@H](N)C[C@@H]3N)O[C@@H]2[C@@H]1O [Nebramycin VII]
- Minimum Inhibitory Concentration [2]: > 256 µg/mL
- Minimum Inhibitory Concentration [3]: 128 µg/mL
- Minimum Inhibitory Concentration [4]: 8 µg/mL
- Minimum Inhibitory Concentration [5]: 8 µg/mL
- Minimum Inhibitory Concentration [6]: 8 µg/mL
- Minimum Inhibitory Concentration [7]: 8 µg/mL
- Minimum Inhibitory Concentration [8]: 16 µg/mL
- Minimum Inhibitory Concentration [9]: 16 µg/mL
- Minimum Inhibitory Concentration [10]: 8 µg/mL
- Minimum Inhibitory Concentration [11]: 16 µg/mL
- Minimum Inhibitory Concentration [12]: 8 µg/mL
- Minimum Inhibitory Concentration [13]: 32 µg/mL
- Minimum Inhibitory Concentration [14]: 32 µg/mL
- Minimum Inhibitory Concentration [15]: 16 µg/mL
- Minimum Inhibitory Concentration [16]: 8 µg/mL
- Minimum Inhibitory Concentration [17]: 8 µg/mL
- Minimum Inhibitory Concentration [18]: 32 µg/mL
- Minimum Inhibitory Concentration [19]: 64 µg/mL
- Minimum Inhibitory Concentration [20]: 16 µg/mL
- Minimum Inhibitory Concentration [21]: > 256 µg/mL
- Minimum Inhibitory Concentration [22]: > 256 µg/mL
- Minimum Inhibitory Concentration [23]: 256 µg/mL
- Minimum Inhibitory Concentration [24]: 64 µg/mL
- Minimum Inhibitory Concentration [25]: > 256 µg/mL
- Minimum Inhibitory Concentration [26]: 16 µg/mL
- Minimum Inhibitory Concentration [27]: 8 µg/mL
- Minimum Inhibitory Concentration [28]: 8 µg/mL
- Minimum Inhibitory Concentration [29]: 8 µg/mL
- Minimum Inhibitory Concentration [30]: 4 µg/mL
- Minimum Inhibitory Concentration [31]: 256 µg/mL
- Minimum Inhibitory Concentration [32]: 128 µg/mL
- Minimum Inhibitory Concentration [33]: 16 µg/mL
- Minimum Inhibitory Concentration [34]: 32 µg/mL
- Minimum Inhibitory Concentration [35]: 4 µg/mL
- Minimum Inhibitory Concentration [36]: 8 µg/mL
- activity against the gram negative organisms [37]: high degree of activity
- solubility in the higher alcohols and most common organic solvents ([38]; higher alcohols and most common organic solvents): substantially insoluble
- solubility in methanol ([38]; methanol): slightly soluble
- solubility in water ([38]; water): water soluble
- toxicity [39]: relatively non-toxic
- Minimum Inhibitory Concentration [40]: 8 µg/mL
- Minimum Inhibitory Concentration [41]: 4 µg/mL
- Minimum Inhibitory Concentration [42]: 4 µg/mL
